Measured values as given in ChEMBL document CHEMBL3431459, “Roche carnitine palmitoyltransferase modulator screening data (supplementary data associated with the publication CHEMBL2216752)”.
≈ marks a conversion by molar mass, not a printed value.

Experiments:
[1] = SUPPLEMENTARY: PAMPA permeability assay; assay type: physicochemical; conditions: read-out: Permeability
[2] = target: T1, Carnitine O-palmitoyltransferase 1, liver isoform (Homo sapiens, UniProt P50416); experiment: (§1) SUPPLEMENTARY: Inhibition of Carnitine palmitoyltransferase 1, liver isoform
T1 sequence (P50416 whole entry): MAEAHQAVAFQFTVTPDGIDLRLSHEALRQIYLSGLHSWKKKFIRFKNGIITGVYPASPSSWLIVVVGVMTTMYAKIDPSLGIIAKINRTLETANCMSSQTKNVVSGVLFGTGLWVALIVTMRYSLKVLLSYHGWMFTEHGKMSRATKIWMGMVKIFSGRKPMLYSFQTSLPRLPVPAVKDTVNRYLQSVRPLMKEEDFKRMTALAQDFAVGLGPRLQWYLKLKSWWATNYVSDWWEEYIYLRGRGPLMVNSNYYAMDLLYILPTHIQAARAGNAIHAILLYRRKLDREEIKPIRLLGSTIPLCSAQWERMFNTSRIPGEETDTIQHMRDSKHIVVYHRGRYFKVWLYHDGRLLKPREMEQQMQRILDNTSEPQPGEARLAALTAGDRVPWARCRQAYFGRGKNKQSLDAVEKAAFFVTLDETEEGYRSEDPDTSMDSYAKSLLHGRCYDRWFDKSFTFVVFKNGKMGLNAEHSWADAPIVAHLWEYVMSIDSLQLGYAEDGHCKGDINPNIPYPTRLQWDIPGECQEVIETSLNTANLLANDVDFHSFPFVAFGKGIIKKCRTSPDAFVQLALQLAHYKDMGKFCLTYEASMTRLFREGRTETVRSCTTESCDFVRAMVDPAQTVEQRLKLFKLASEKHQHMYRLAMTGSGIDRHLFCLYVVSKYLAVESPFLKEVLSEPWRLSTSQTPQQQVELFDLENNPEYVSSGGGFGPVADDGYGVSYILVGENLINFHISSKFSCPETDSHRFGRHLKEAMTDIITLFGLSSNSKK

[3] = target: T2, Carnitine O-palmitoyltransferase 1, liver isoform (Rattus norvegicus, UniProt P32198); experiment: as §1
T2 sequence (P32198 whole entry): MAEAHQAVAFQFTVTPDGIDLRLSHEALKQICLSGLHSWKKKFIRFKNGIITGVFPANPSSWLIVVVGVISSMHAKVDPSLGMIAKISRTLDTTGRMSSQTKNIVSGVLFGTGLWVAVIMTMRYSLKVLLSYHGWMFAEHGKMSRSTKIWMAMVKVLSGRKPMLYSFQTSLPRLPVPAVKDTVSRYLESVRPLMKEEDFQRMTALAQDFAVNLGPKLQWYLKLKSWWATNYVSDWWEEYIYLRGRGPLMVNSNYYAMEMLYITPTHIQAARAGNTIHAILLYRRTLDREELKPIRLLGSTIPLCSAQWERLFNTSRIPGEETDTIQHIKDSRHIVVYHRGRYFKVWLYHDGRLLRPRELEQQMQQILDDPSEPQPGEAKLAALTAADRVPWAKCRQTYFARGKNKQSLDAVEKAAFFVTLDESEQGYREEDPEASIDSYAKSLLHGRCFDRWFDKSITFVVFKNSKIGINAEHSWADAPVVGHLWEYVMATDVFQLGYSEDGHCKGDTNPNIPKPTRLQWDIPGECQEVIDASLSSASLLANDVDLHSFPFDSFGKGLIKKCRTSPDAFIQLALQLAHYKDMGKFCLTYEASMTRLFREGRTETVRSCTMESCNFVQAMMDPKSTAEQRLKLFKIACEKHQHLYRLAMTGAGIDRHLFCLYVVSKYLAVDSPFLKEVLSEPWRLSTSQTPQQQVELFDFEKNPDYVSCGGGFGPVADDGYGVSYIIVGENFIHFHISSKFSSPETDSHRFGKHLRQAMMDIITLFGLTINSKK

[4] = target: T3, Carnitine O-palmitoyltransferase 2, mitochondrial (Rattus norvegicus, UniProt P18886); experiment: (§2) SUPPLEMENTARY: Inhibition of Carnitine palmitoyltransferase 2
T3 sequence (P18886 whole entry): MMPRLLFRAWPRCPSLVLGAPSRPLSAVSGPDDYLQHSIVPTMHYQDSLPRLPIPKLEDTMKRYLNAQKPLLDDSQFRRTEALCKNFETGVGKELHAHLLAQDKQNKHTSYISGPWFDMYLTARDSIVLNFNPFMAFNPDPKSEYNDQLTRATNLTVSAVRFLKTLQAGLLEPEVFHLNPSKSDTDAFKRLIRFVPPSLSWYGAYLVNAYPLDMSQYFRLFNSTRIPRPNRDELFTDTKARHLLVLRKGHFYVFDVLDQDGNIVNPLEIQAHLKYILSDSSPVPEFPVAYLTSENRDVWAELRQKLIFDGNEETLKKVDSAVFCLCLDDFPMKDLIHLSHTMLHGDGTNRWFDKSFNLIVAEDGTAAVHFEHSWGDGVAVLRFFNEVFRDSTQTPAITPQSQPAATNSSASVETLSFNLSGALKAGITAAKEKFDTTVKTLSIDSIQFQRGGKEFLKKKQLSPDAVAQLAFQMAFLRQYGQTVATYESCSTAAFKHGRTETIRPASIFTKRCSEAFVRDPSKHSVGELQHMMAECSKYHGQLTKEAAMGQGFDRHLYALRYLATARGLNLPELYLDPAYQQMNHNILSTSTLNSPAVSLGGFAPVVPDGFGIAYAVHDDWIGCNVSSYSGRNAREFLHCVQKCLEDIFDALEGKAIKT

[5] = target: T4, Carnitine O-palmitoyltransferase 2, mitochondrial (Homo sapiens, UniProt P23786); experiment: as §2
T4 sequence (P23786 whole entry): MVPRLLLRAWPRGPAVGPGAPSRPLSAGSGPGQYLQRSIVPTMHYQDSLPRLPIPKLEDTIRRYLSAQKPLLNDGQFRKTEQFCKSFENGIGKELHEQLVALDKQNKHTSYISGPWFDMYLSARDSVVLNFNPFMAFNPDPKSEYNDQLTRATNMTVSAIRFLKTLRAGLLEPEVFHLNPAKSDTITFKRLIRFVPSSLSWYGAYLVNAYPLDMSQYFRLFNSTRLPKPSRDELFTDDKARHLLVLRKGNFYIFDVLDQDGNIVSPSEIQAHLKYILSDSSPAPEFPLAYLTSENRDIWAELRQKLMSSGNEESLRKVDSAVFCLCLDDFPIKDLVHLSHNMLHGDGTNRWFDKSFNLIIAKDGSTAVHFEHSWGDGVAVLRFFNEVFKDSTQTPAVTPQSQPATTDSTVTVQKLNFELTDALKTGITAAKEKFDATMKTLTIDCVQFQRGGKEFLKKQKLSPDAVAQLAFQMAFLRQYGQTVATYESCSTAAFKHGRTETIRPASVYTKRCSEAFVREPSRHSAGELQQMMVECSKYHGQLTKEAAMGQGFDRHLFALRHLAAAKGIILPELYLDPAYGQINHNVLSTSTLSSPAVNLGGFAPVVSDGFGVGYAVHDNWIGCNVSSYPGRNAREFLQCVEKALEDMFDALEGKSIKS

[6] = SUPPLEMENTARY: Lipophilicity (log D) Determination by high-throughput shake-flask; assay type: physicochemical; conditions: octanol/water
[7] = SUPPLEMENTARY: Lyophilisation Solubility Assay (LYSA); assay type: physicochemical; conditions: read-out: Kinetic_solubility
[8] = target: T5, Carnitine O-palmitoyltransferase 1, muscle isoform (Homo sapiens, UniProt Q92523); experiment: SUPPLEMENTARY: Inhibition of Carnitine palmitoyltransferase 1, muscle isoform; design: species or system Muscle tissue
T5 sequence (Q92523 whole entry): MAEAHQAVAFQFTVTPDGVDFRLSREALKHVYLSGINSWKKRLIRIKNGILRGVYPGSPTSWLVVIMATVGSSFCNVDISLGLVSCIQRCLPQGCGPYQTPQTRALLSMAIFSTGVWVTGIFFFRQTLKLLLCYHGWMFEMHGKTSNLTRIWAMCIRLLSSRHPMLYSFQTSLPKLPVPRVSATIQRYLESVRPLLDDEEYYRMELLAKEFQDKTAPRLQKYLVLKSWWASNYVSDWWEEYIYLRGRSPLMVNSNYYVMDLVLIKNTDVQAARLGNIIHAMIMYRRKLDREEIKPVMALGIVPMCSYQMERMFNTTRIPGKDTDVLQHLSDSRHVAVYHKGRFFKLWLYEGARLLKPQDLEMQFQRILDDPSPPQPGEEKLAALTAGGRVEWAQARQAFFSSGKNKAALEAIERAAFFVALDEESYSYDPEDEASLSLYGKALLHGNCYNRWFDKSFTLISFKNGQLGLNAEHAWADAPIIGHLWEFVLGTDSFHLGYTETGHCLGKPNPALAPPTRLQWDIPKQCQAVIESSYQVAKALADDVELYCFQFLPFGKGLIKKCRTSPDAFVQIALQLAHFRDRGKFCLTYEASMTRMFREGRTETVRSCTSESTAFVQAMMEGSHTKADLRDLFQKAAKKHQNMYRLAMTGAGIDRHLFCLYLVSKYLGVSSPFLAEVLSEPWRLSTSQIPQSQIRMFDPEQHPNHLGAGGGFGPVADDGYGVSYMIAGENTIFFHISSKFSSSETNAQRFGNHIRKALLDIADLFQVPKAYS

| SMILES | Papp [1] [×10⁻⁶ cm/s] | IC50 [2] [nM] | IC50 [3] [nM] | IC50 [4] [nM] | IC50 [5] [nM] | logD [6] | solubility kinetic [7] [µg/mL] | IC50 [8] [nM] |
| --- | --- | --- | --- | --- | --- | --- | --- | --- |
| Cc1cc(C)cc(S(=O)(=O)c2n[nH]c3ccc(C(=O)Nc4ccc(C(=O)O)cc4)cc23)c1 | 0.03 | 51.2 | 26.4 | 4340 | 1360 | 1.89 | 40 (≈ 89 µM) | 1250 |
| O=C(COc1ccccc1)N1CCCC[C@@H]1c1nc(-c2ccc3[nH]ncc3c2)n[nH]1 | 1.64 | 87.4 | 683 | 61500 | 13900 | 2.71 | 53 (≈ 132 µM) | > 100000 |
| COc1ccc(Cl)cc1CN1C(=O)OC(C)(C)c2ccc(C(=O)Nc3ccc(CC(=O)O)cc3)cc21 | 1.71 | 147 | 41.9 | > 100000 | > 100000 | 0.51 | 26 (≈ 51.1 µM) | 2330 |
| O=C1Cc2ccc(-c3noc([C@H]4CCCCN4C(=O)COc4ccccc4)n3)cc2N1 | 1.46 | 95.9 | 102 | > 100000 | > 100000 | 2.63 | 13 (≈ 31.1 µM) | > 100000 |
| COc1ccc(Cl)cc1S(=O)(=O)N1CC(C(=O)O)Oc2ccc(C(=O)Nc3ccc(F)cc3)cc21 (stereo not drawn) | 0.06 | 80.9 | 131 | > 100000 | > 100000 | -0.22 | 347 (≈ 666 µM) | 99900 |
| O=C1CCCN1c1cccc(-c2noc([C@H]3CCCCN3C(=O)COc3ccccc3)n2)c1 | 3.86 | 88.8 | 62.1 | > 100000 | > 100000 | 3.09 | < 1 | > 100000 |
| O=C(COc1ccccc1)N1CCCC[C@@H]1c1nc(-c2ccc(Cl)cc2)no1 | 0.962 | 190 | 228 | > 100000 | > 100000 | > 3 | 11 (≈ 27.6 µM) | > 100000 |
| Nc1cc(-c2nc([C@H]3CCCCN3C(=O)COc3ccccc3)no2)ccn1 | 4.86 | 110 | 372 | > 100000 | 42700 | 2.47 | 61 (≈ 161 µM) | > 100000 |
| Cc1cc(-c2nc([C@H]3CCCCN3C(=O)COc3ccccc3)no2)on1 | 9.63 | 116 | 144 | > 100000 | > 100000 | 2.6 | 41 (≈ 111 µM) | > 100000 |
| COc1ccc(Cl)cc1S(=O)(=O)N1CCc2c(C)cc(C(=O)Nc3ccc(C(=O)O)c(F)c3)cc21 | 1.65 | 71 | 96.2 | 684 | 286 | 0.77 | 60 (≈ 116 µM) | 3680 |
| Nc1ccc(-c2noc([C@H]3CCCCN3C(=O)COc3ccccc3)n2)cn1 | 4.44 | 34.4 | 221 | 30200 | > 100000 | 2.62 | 81 (≈ 213 µM) | > 100000 |
